# Laboratory results from US20040091527A1, “Method of increasing the bioavailability and tissue penetration of azithromycin” (Pfizer Inc, priority 2000, published 2004).
# Entries after “also recorded” stand apart in the source; their conditions may differ.
# Columns and labels:
# [1] = dog, intravenous radiolabeled dose; cited from earlier work
# [2] = in vivo; cited from earlier work
# [3] = Effect of nelfinavir on the pharmacokinetics of a single oral dose of azithromycin (crossover study); settings: co-administration with nelfinavir vs azithromycin alone
# Method: (§1) Healthy volunteers received nelfinavir for 11 days. On Day 9 a single dose of azithromycin was administered. Each subject also received a single control dose of 1200 mg azithromycin either two weeks before the start of a nelfinavir treatment regimen or three weeks after a nelfinavir treatment regimen.
# (§2) Nelfinavir was administered as 3 commercial 250 mg tablets, 3 times per day (morning dose at approximately 7 am; afternoon dose at approximately 3 pm; evening dose at approximately 10 pm) with food for 11 days. On day 9, azithromycin (1200 mg) was dosed as 2 600 mg commercial tablets at the same time as the morning dose of nelfinavir. On day 9 the subjects, who were previously fasted for at least 8 hr, consumed a standard breakfast consisting of cereal and/or toast with butter and jelly, and milk. Immediately following the standard breakfast, the subjects consumed 750 mg nelfinavir and 1200 mg azithromycin, with 120 ml water. On the day on which azithromycin alone was dosed, 2 600 mg commercial tablets were dosed with 120 ml water, immediately following the standard breakfast.
# (§3) Serum samples were assayed for azithromycin utilizing LC/MS/MS. […] Concentrations below the lower limits of quantification were utilized as 0.00 μg/ml in the calculations.
# (§4) Maximum observed azithromycin concentrations (Cmax) were determined by inspection of the data. Tmax was defined as the time of first occurrence of Cmax. […] Area under the serum concentration versus time curves (AUClast) were calculated for the interval of pre-dose to the last time at which concentrations of azithromycin were measurable. Total exposure was estimated as AUC for the interval of pre-dose to infinity. AUC=AUClast+C*last/kei, where C*last is the concentration estimated from the aforementioned regression at the time of the last quantifiable concentration of drug.
# (§5) Geometric mean values of Cmax, AUC, Cmax ratios, and AUC ratios were determined. Arithmetic means of other parameters were determined.
# Caco-2 cell monolayers = experiment: Azithromycin transport across Caco-2 cell monolayers, with and without P-glycoprotein inhibitors; format: in vitro ADME
# Method: Caco-2 cell monolayers were grown on permeable transwell-col filter supports (24.5 mm diameter, 0.45 μm pore size) and used in these studies at day 21-24. 2 mls of 0.4 μM ^14C Azithromycin in Hank's balanced salt solution (HBSS) was added to the donor chamber and 2 mls of HBSS was added to the acceptor chamber. An impermeable marker, ^3H Mannitol, was included in these studies to ensure the monolayers were intact. […] Transport was monitored in the apical to basolateral (absorptive) and basolateral to apical (secretory) direction. The wells were incubated for 1 hour (unstirred) at 37° C. Samples were removed after the incubation period and analyzed by dual label LSC. The transport was calculated as percent flux/hr. [formula]
# Transport measurements were made in controls, implemented in like fashion except no test compound was included.
# clinical = settings: human, serum, po, 1200 mg
# Method: as §1, §2, §3, §4, §5
# [4] = system: CACO-2 (colon carcinoma) cells; settings: cultured CACO-2 cells; cited from earlier work
# [5] = humans, no p-gp inhibitor; cited from earlier work
# [6] = cited from earlier work
# [7] = in vivo; cited from earlier work; remark: listed apart in the source
structure (smiles),measurement,setting,value
"CC[C@H]1OC(=O)[C@H](C)[C@@H](O[C@H]2C[C@@](C)(OC)[C@@H](O)[C@H](C)O2)[C@H](C)[C@@H](O[C@@H]2O[C@H](C)C[C@H](N(C)C)[C@H]2O)[C@](C)(O)C[C@@H](C)CN(C)[C@H](C)[C@@H](O)[C@]1(C)O [Azithromycin, 9a-aza-9a-methyl-9deoxo-9a-homoerythromycin A]",recovered radiolabel eliminated across the intestinal wall,[1],40%
same,"interaction with (effect on plasma levels of) HIV protease inhibitors saquinavir, ritonavir, indinavir, nelfinavir",[2],does not interact
same,increase of mean AUC0-∞ for azithromycin,[3]; p=0.0001,112%
same,increase of mean Cmax,[3]; p=0.0003,137%
same,substrate for the P-glycoprotein efflux transporter,Caco-2 cell monolayers; Caco-2,is a substrate
same,% Flux/hr B-A,"Caco-2 cell monolayers; human, Caco-2, 1 h, 0.4 μM",6.6 % flux/hr
same,% flux/hr A-B,"Caco-2 cell monolayers; human, Caco-2, 1 h, 0.4 μM",0.1 % flux/hr
same,AUC(0-inf),clinical,11500 ng·h/mL
same,Cmax,clinical,889 ng/mL
same,basolateral-to-apical azithromycin flux versus apical-to-basolateral flux,[4],exceeded
same,oral bioavailability,[5],37%
same,effect on midazolam plasma levels,[6]; co-dosed with midazolam (Zimmerman et al.; Backman et al.),no effect; also recorded: did not increase
same,elimination half-life,[7],69 h
CC[C@H]1OC(=O)[C@H](C)[C@@H](O[C@H]2C[C@@](C)(OC)[C@@H](O)[C@H](C)O2)[C@H](C)[C@@H](O[C@@H]2O[C@H](C)C[C@H](N(C)C)[C@H]2O)[C@](C)(OC)C[C@@H](C)C(=O)[C@H](C)[C@@H](O)[C@]1(C)O [clarithromycin],"interaction with (effect on plasma levels of) HIV protease inhibitors saquinavir, ritonavir, indinavir, nelfinavir",[2],exhibit an interaction with all but nelfinavir
CC[C@H]1OC(=O)[C@H](C)[C@@H](O[C@H]2C[C@@](C)(OC)[C@@H](O)[C@H](C)O2)[C@H](C)[C@@H](O[C@@H]2O[C@H](C)C[C@H](N(C)C)[C@H]2O)[C@](C)(O)C[C@@H](C)C(=O)[C@H](C)[C@@H](O)[C@]1(C)O [erythromycin],increase in midazolam AUC,[6]; midazolam co-dosed with erythromycin (Zimmerman et al.),380%
